Data taken from patent US20250186433A1, “ACSS2 INHIBITORS AND METHODS OF USE THEREOF” (EpiVario, Inc., priority 2017, published 2025).
Entries after “also recorded” stand apart in the source; their conditions may differ.

Columns and labels:
[1] = target: T1, ACSF2 (Homo sapiens, UniProt Q96CM8); assay: Acyl-CoA synthetases selectivity panel: ACSF2; format: biochemical; conditions: human recombinant protein, substrate octanoate, AMP readout by HPLC; read-out: HPLC based activity assays IC50 (UM) ACSF2
T1 construct: purchased Cusabio, China
T1 sequence (Q96CM8 42-615): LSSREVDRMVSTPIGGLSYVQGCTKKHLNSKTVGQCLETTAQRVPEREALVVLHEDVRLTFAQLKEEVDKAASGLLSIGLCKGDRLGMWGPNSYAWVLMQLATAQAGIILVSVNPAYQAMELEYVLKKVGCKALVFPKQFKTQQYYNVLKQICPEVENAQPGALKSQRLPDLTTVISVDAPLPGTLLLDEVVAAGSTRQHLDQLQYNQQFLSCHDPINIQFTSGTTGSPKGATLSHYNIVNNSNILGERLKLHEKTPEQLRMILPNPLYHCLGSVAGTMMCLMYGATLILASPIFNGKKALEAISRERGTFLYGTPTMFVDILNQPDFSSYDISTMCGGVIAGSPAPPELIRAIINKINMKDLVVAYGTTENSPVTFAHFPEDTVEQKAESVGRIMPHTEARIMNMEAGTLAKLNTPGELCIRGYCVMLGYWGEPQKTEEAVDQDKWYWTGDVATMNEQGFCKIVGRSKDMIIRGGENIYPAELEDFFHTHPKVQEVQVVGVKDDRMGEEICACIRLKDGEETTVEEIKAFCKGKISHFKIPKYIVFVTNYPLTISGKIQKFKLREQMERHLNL
Description: (§1) The biochemical assays for testing the selectivity of the compounds according to this invention, were done using human recombinant proteins (Cusabio, China). The readout of the assays was AMP levels, the […] of the reactions, by HPLC method. The acyl substrates (Sigma-Aldrich) of the assays were as followed: ACSS1/ACSS2—Acetate, AACS-Acetoacetyl, ACSF2—Octanoate and ACSL5—Palmitate. The protein in this panel include ACSS1, the closest homolog of ACSS2, in addition to representative short/medium/long chain acyl-CoA syntatases.

[2] = target: T2, ACSS2 (Homo sapiens, UniProt Q9NR19); assay: cell-based
Description: Testing the inhibitory effect of compounds on the cellular activity of ACSS2 was done by tracing the incorporation of ^13C from ^13C-acetate into fatty-acids in MDA-MB-468 cells under hypoxic conditions of 1% O2. The assay was done for 5 hours in DMEM with 5.5 mM glucose, 1 mM sodium Pyruvate, 0.65 mM Glutamine, 3.5 ug/ml Biotin, 1% dialyzed serum, 0.5 mM 13 C-acetate and with different concentrations of the inhibitors. At the end of the incubation, the cells were washed with cold PBS, harvested into glass tubes and undergo saponification. The level of ^13C incorporation into Palmitate was done by LC-MS analysis and the level of inhibition was calculated with PRISM software.

[3] = target: T2, ACSS2; assay: Acyl-CoA synthetases selectivity panel: ACSS2; format: biochemical; set-up: purchased Cusabio, China; conditions: human recombinant protein, substrate acetate, AMP readout by HPLC; read-out: HPLC based activity assays IC50 (UM) ACSS2
Description: as §1

[4] = target: T3, AACS (Homo sapiens, UniProt Q86V21); assay: Acyl-CoA synthetases selectivity panel: AACS; format: biochemical; conditions: human recombinant protein, substrate acetoacetyl, AMP readout by HPLC; read-out: HPLC based activity assays IC50 (UM) AACS
T3 construct: purchased Cusabio, China
T3 sequence (Q86V21 1-672): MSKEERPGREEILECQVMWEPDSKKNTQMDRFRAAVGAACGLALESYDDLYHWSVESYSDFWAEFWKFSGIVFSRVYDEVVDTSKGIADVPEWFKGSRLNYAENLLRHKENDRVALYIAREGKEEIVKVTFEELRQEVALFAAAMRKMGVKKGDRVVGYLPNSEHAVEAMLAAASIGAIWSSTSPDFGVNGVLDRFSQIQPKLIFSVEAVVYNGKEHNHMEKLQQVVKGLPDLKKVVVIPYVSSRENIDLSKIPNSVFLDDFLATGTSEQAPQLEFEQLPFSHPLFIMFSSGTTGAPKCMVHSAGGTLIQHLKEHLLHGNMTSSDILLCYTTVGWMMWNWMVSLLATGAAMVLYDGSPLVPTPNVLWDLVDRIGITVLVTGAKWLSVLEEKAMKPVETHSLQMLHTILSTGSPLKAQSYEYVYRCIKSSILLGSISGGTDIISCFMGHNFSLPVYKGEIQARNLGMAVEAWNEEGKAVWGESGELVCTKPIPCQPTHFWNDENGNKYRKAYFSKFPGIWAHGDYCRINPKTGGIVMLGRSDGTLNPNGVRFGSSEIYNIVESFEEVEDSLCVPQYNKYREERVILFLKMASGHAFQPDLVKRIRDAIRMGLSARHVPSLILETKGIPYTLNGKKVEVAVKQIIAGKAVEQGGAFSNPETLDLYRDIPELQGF
Description: as §1

[5] = test system: HCT116; assay: In-vivo model that does not utilize acetate (HCT116); conditions: daily oral dosing
[6] = Pharmacokinetic profile in mice (oral and iv); format: in vivo; conditions: mouse, plasma
[7] = target: T4, ACSL5 (Homo sapiens, UniProt Q9ULC5); assay: Acyl-CoA synthetases selectivity panel: ACSL5; format: biochemical; conditions: human recombinant protein, substrate palmitate, AMP readout by HPLC; read-out: HPLC based activity assays IC50 (UM) ACSL5
T4 construct: purchased Cusabio, China
T4 sequence (Q9ULC5 1-683): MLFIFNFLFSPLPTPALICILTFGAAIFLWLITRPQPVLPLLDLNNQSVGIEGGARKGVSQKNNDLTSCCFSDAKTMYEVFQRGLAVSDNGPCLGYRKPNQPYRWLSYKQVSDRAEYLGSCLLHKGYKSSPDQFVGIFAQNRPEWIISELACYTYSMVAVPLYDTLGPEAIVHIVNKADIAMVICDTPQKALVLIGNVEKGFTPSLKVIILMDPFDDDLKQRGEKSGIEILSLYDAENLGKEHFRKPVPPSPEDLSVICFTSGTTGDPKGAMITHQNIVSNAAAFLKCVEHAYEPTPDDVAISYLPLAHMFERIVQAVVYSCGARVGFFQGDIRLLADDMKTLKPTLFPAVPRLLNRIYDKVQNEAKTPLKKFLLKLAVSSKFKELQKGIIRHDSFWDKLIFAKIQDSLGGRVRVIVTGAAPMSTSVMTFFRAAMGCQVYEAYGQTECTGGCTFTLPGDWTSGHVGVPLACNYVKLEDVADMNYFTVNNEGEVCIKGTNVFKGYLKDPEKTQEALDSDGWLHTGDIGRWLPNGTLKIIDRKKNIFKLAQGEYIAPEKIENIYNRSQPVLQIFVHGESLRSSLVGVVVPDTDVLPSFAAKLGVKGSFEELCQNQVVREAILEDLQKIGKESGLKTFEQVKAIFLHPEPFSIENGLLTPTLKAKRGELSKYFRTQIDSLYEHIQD
Description: as §1

[8] = target: T2, ACSS2; assay: biochemical
Description: The assay is based on a coupling reaction with Pyrophosphatase: ACSS2 is converting ATP+CoA+Acetate=>AMP+pyrophosphate+Acetyl-CoA (Ac-CoA). Pyrophosphatase converts pyrophosphate, a product of the ACSS2 reaction, to phosphate which can be detected by measuring the absorbance at 620 nm after incubation with the Biomol green reagent (Enzo life Science, BML-AK111).
At the end of the reaction, Biomol Green was added for 30 minutes at RT and the activity was measured by reading the absorbance at 620 nm.

[9] = test system: MDA-MB-468 breast cancer cells xenograft; assay: In-vivo efficacy study in MDA-MB-468 breast cancer cells xenograft; conditions: 100 mg/kg orally once daily; female NMRI nude mice
Description: An in-vivo efficacy study was carried out by Charles-River Laboratories at the Freiburg, Germany site.
Tumor fragments from Breast cancer cell line MDA-MB-468 passaged as subcutaneous xenograft were subcutaneously implanted into female NMRI nude mice (Crl:NMRI-Foxnlnu). The animals were randomized into groups (n=10) when tumors volume reached 50 to 250 mm3. […] Body weights and tumor volume [mm3] by caliper were measured twice weekly.

[10] = target: T5, ACSS1 (Homo sapiens, UniProt Q9NUB1); assay: Acyl-CoA synthetases selectivity panel: ACSS1; format: biochemical; conditions: human recombinant protein, substrate acetate, AMP readout by HPLC; read-out: HPLC based activity assays IC50 (UM) ACSS1
T5 construct: purchased Cusabio, China
T5 sequence (Q9NUB1 38-689): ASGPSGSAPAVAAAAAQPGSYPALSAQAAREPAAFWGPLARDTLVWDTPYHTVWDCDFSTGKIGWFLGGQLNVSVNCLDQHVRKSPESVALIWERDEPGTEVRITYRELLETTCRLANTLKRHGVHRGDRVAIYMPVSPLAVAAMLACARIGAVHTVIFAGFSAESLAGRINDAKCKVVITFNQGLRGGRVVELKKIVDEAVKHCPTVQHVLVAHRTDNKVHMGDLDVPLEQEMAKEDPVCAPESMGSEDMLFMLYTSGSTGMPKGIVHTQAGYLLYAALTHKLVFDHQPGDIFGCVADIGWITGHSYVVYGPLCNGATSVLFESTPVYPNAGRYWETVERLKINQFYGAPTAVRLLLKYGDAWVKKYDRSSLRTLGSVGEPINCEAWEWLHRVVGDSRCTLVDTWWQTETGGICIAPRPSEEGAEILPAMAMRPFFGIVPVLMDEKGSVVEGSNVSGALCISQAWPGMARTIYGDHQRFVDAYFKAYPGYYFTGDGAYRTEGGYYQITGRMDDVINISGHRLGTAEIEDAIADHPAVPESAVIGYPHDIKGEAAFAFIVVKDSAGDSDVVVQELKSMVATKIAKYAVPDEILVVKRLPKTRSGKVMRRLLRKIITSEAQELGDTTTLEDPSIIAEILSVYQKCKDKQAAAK
Description: as §1

T2 sequence (Q9NR19 whole entry): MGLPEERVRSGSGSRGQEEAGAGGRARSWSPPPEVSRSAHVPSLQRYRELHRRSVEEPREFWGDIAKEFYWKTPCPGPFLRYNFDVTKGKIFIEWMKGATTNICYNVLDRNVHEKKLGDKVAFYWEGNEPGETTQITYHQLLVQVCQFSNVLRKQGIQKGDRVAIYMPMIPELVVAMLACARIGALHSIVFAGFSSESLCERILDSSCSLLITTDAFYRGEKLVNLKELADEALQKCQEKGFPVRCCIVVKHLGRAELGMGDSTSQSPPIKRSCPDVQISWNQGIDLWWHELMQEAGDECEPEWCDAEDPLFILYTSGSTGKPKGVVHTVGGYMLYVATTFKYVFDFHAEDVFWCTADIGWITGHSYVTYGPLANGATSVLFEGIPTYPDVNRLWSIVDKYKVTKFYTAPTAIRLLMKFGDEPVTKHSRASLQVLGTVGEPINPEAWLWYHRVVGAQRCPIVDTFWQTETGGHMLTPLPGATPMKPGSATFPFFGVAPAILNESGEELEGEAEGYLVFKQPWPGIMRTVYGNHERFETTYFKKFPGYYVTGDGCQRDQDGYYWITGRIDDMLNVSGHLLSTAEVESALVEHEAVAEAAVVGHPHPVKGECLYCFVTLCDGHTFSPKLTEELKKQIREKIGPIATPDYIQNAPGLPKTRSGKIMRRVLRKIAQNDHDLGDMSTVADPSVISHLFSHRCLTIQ

`COc1ccc(N2N=C(C)C(C(=O)Nc3cccc(C(C)(F)F)c3)C2=O)cc1` (centres unmarked) [compound 265, N-(3-(1,1-difluoroethyl)phenyl)-1-(4-methoxyphenyl)-3-methyl-5-oxo-4,5-dihydro-1H-pyrazole-4-carboxamide] gave an IC50 [1] of 152000 nM, an IC50 [2] of 0.5 to 50 nM and an IC50 [3] of under 1 nM. For the same compound, the IC50 [4] was 171000 nM, the “efficacy in a model that does not utilize acetate (HCT116)” value [5] was “no efficacy” and the bioavailability ([6]; oral 5 mg/kg, iv 1 mg/kg) was 74%. For the same compound, the clearance ([6]; oral 5 mg/kg, iv 1 mg/kg) was 0.59 mL/min/kg, the half-life ([6]; po, single 5 mg/kg dose, read-out: t½ (converted)) was 6.51 h and the IC50 [7] was over 100000 nM. For the same compound, the IC50 [8] was 0.01 to 6 nM, the “tumor growth in MDA-MB-468 xenograft model” value [9] was “significant tumor growth delay; also recorded: inhibits tumor growth” and the IC50 [10] was 1000 to 10000 nM.

In the case of `CC1=NN(c2ccc(OC(F)F)cc2)C(=O)C1C(=O)N[C@H]1CC[C@@H](O)[C@@H](O)C1` (stereo partly drawn) [compound 307, 1-(4-(difluoromethoxy)phenyl)-N-((1S,3S,4R)-3,4-dihydroxycyclohexyl)-3-methyl-5-oxo-4,5-dihydro-1H-pyrazole-4-carboxamide], the IC50 [2] is reported as over 100 nM and the IC50 [8] is reported as 0.01 to 6 nM.
